Key:
[1] = test system: TetR/tetO interaction; experiment: DNA/protein (tetO/TetR) interaction assay, FortéBio Octet Red; format: binding; conditions: % association of TetR to tetO; compound 10 μg/mL & tetracycline 10 ng/mL mix in running buffer; normalized to DMSO control
Procedure: Biacore Based DNA/Protein (tetO/TetR) Interaction Assay
The FortéBio technology (FortéBio, Inc., Menlo Park, Calif., USA) is a novel label-free methodology for analyzing macromolecular ligand/capture interactions. The Octet system can be used to measure real-time, label-free analysis of biomolecular interactions and provide information on affinity, kinetics and concentration. The instrument is designed to assay up to eight samples in parallel in 2 min from a standard 96-well micro-plate. The detection technology utilized in the Octet is based on Biolayer Interferometry (BLI). BLI relies on the reflective property of white light and is implemented in the Octet via the use of fiber optic-based biosensors. The biosensors are coated with molecules chosen to capture the targeted ligands. The measurements were performed on an Octet Red system equipped with streptavidin biosensor tips (SA). Tips were purchased from FortéBio.
Interaction Studies: FortéBio's Octet Red
Interaction analyses were conducted at 30° C. in running buffer (HBS-P+5 mmol/L MgSO4) unless stated otherwise. (HBS-P buffer: 10 mM Hepes (pH 7.4), 150 mM NaCl, 0.005% (v/v) polysorbate P20, and 5 mmol/L MgSO4; a 10×HBS-P buffer from GE Healthcare was used). Temperature control on the Octet was accomplished by holding the instrument at room temperature so that it could be heated to 30° C. Sensor tips were pre-wet for 10 min in running buffer immediately prior to use, and the micro plates used in the Octet were filled with 200 μl of sample or buffer per well and agitated at 600 rpm. For the experiments commercially available precoated streptavidine tips were used (SA).
Biotinylated oligos were loaded onto the FortéBio SA fibers in HBS-P buffer pH 7.4. Protein binding experiments were run with HBS-P buffer unless stated otherwise. After each run the tip was regenerated (maximum 4 times) with running buffer containing 0.3% w/v sodium dodecylsulfate (SDS).
(§1) Correlation of the synergistic effect of compounds of the invention with tetracyclines on bacterial growth inhibition (% growth relative to DMSO; 4 μg/ml tetracyclines and 10 μg/ml compounds of the invention) and TetR/tetO interaction (% association of TetR to tetO relative to DMSO). Bacterial growth was analysed 16 to 20 hours after inoculation according to CLSI guidelines. OD610 was determined with a Tecan Infinite F200 and normalized to the DMSO control. The interaction of TRIC compounds with the TetR protein and the effect on TetR-tetO operator DNA binding was analyzed with a FortéBio's Octet red and normalized to the DMSO control.

[2] = test system: Antibiotic-resistant staphylococcal, enterococcal, enterobacterial or acinetobacter isolates; experiment: Broth micro-dilution assay in clinical patient isolates, compound in combination with tetracyclines; format: cell-based; conditions: 4 μg/ml tetracyclines and 10 μg/ml compound; OD610 16 to 20 hours after inoculation, normalized to DMSO control (100%)
From the text: Microdilution Assay in Clinical Patient Isolates
Broth Micro-Dilution Assay in Cation-Adjusted Mueller-Hinton (CA-MHB)
The assay protocol is adapted from the Clinical and Laboratory Standards Institute (CLSI) standardized method for broth microdilution. This methodology was used to evaluate the susceptibility of pathogenic clinical isolates towards different antibiotics in combination with a compound of the invention.
Antibiotic-resistant staphylococcal, enterococcal, enterobacterial or acinetobacter isolates were scraped from fresh Orientation Agar plates, suspended in saline solution with the turbidity adjusted to OD610 of 0.1 (corresponds to 0.5 McFarland scale). Subsequently, the cultures were diluted 160× in CA-MHB medium and a volume of 80 μl was dispensed into each well of a 96 well microtiter plate. Plates were covered and incubated for 16 to 20 hours at 35° C. without shaking. Plates were then visually analyzed, scanned and subsequently the OD610 was determined. Average and standard deviations were calculated from at least two wells with the same condition. Values were normalized to the DMSO control (which is 100%).
as §1

O=C(NCc1cc(O)ccc1O)c1cc(C(F)(F)F)ccc1C(F)(F)F [Example 10]
Association (% rel. to DMSO) [1]: 25.68%
Growth (% rel. to DMSO) [2]: 47.14%

COc1ccc(OC)c2c1CCCC2C(=O)NCC(C)C (stereo not shown) [Example 20, N-isobutyl-5,8-dimethoxy-tetralin-1-carboxamide]
Association (% rel. to DMSO) [1]: 97.40%
Growth (% rel. to DMSO) [2]: 63.75%

O=C(NCc1ccccc1)C1CCc2c(O)ccc(O)c2C1 (stereo not shown) [Example 24]
Association (% rel. to DMSO) [1]: 54.12%
Growth (% rel. to DMSO) [2]: 48.15%

O=C(NCc1cc(O)ccc1O)c1ccccc1F [Example 5]
Association (% rel. to DMSO) [1]: 30.49%
Growth (% rel. to DMSO) [2]: 56.57%

O=C(NCc1ccc(-c2ccccc2)cc1)C1CCc2c(O)ccc(O)c2C1 (stereo not shown) [Example 30]
Association (% rel. to DMSO) [1]: 25.35%
Growth (% rel. to DMSO) [2]: 15.00%

CCC(=O)NCc1cc(OC)c(-c2ccccc2)cc1OC [Example 13]
Growth (% rel. to DMSO) [2]: 4.74%

O=C(NCc1cc(O)ccc1O)c1ccc(C(F)(F)F)cc1 [Example 9]
Association (% rel. to DMSO) [1]: 16.22%
Growth (% rel. to DMSO) [2]: 25.91%

O=C(c1cc(O)ccc1O)N1CCN(c2ccccc2)CC1 [Example 4]
Growth (% rel. to DMSO) [2]: 63.87%

O=C(NCCc1cc(O)ccc1O)c1ccccc1 [Example 3]
Association (% rel. to DMSO) [1]: 63.20%
Growth (% rel. to DMSO) [2]: 41.10%

O=C(NCc1cc(C(F)(F)F)cc(C(F)(F)F)c1)C1CCc2c(O)ccc(O)c2C1 (stereo not shown) [Example 25]
Association (% rel. to DMSO) [1]: 11.76%
Growth (% rel. to DMSO) [2]: 90.15%

O=C(NCc1ccc(F)cc1F)C1CCc2c(O)ccc(O)c2C1 (stereo not shown) [Example 36]
Association (% rel. to DMSO) [1]: 27.89%
Growth (% rel. to DMSO) [2]: 33.52%

O=C(NCCCc1ccccc1)C1CCc2c(O)ccc(O)c2C1 (stereo not shown) [Example 33]
Association (% rel. to DMSO) [1]: 19.05%
Growth (% rel. to DMSO) [2]: 16.62%

O=C(NCc1cc(O)ccc1O)c1cc(F)ccc1F [Example 8]
Association (% rel. to DMSO) [1]: 42.57%
Growth (% rel. to DMSO) [2]: 69.68%

O=C(NCc1cc(F)cc(F)c1)C1CCc2c(O)ccc(O)c2C1 (stereo not shown) [Example 23, N-[(3,5-difluorophenyl)methyl]-5,8-dihydroxy-tetralin-2-carboxamide]
Association (% rel. to DMSO) [1]: 22.69%
Growth (% rel. to DMSO) [2]: 8.15%

O=C(NCc1cc(O)ccc1O)c1cc(C(F)(F)F)cc(C(F)(F)F)c1 [Example 11]
Association (% rel. to DMSO) [1]: 19.59%
Growth (% rel. to DMSO) [2]: 26.14%

CCCCC(=O)NCc1ccc(-c2ccccc2)cc1O [Example 12, N-[(2-hydroxy-4-phenyl-phenyl)-methyl]pentanamide]
Association (% rel. to DMSO) [1]: 1.60%
Growth (% rel. to DMSO) [2]: 5.76%

O=C(Nc1nnc(-c2ccc(O)cc2)s1)C1CCc2c(O)ccc(O)c2C1 (stereo not shown) [Example 28]
Association (% rel. to DMSO) [1]: 36.62%
Growth (% rel. to DMSO) [2]: 46.79%

COc1ccc(OC)c2c1CCC(C(=O)NCC(C)C)C2 (stereo not shown) [Example 18]
Association (% rel. to DMSO) [1]: 13.64%
Growth (% rel. to DMSO) [2]: 103.70%

O=C(NCc1cc(O)ccc1O)c1cc(F)cc(F)c1 [Example 2]
Association (% rel. to DMSO) [1]: 51.60%
Growth (% rel. to DMSO) [2]: 34.40%

O=C(Nc1ccccc1)C1CCc2c(O)ccc(O)c2C1 (stereo not shown) [Example 32]
Association (% rel. to DMSO) [1]: 25.35%
Growth (% rel. to DMSO) [2]: 58.27%

O=C(CCc1ccccc1)Nc1ccccc1Oc1ccc(Cl)cc1 [Example 16]
Association (% rel. to DMSO) [1]: 2.52%
Growth (% rel. to DMSO) [2]: 6.15%

O=C(NCc1cc(O)ccc1O)c1cc(F)ccc1O [Example 7]
Association (% rel. to DMSO) [1]: 26.83%
Growth (% rel. to DMSO) [2]: 56.50%

O=C(NCc1cc(O)ccc1O)c1cccc(F)c1 [Example 6]
Association (% rel. to DMSO) [1]: 25.61%
Growth (% rel. to DMSO) [2]: 60.43%

O=C(NCC1CCCCC1)C1CCc2c(O)ccc(O)c2C1 (stereo not shown) [Example 34]
Association (% rel. to DMSO) [1]: 21.09%
Growth (% rel. to DMSO) [2]: 13.58%

O=C(NCc1ccc(C(F)(F)F)cc1)C1CCc2c(O)ccc(O)c2C1 (stereo not shown) [Example 27]
Association (% rel. to DMSO) [1]: 23.15%
Growth (% rel. to DMSO) [2]: 58.69%

CN(Cc1ccccc1)C(=O)C1CCc2c(O)ccc(O)c2C1 (stereo not shown) [Example 26]
Association (% rel. to DMSO) [1]: 43.52%
Growth (% rel. to DMSO) [2]: 55.92%

O=C(NCc1cc(F)ccc1O)C1CCc2c(O)ccc(O)c2C1 (stereo not shown) [Example 31]
Association (% rel. to DMSO) [1]: 20.42%
Growth (% rel. to DMSO) [2]: 68.68%

O=C(Nc1ccccc1Oc1ccc(Cl)cc1)C1CCc2c(O)ccc(O)c2C1 (stereo not shown) [Example 37]
Association (% rel. to DMSO) [1]: 14.18%
Growth (% rel. to DMSO) [2]: 10.42%

O=C(NCc1cc(F)ccc1F)C1CCc2c(O)ccc(O)c2C1 (stereo not shown) [Example 35]
Association (% rel. to DMSO) [1]: 30.61%
Growth (% rel. to DMSO) [2]: 25.80%

CCCCC(=O)Nc1ccccc1Oc1ccc(Cl)cc1 [Example 15]
Association (% rel. to DMSO) [1]: 85.19%
Growth (% rel. to DMSO) [2]: 4.88%

CC(C)CNC(=O)C1CCc2c(c(O)c3ccccc3c2O)C1 (stereo not shown) [Example 21]
Growth (% rel. to DMSO) [2]: 25.77%

CCC(=O)Nc1ccccc1Oc1ccc(Cl)cc1 [Example 14, N-[2-(4-chlorophenoxyl)phenyl]propanamide]
Association (% rel. to DMSO) [1]: 10.26%
Growth (% rel. to DMSO) [2]: 18.21%

CC(C)CNC(=O)C1CCc2c(O)ccc(O)c2C1 (stereo not shown) [Example 19]
Association (% rel. to DMSO) [1]: 54.02%
Growth (% rel. to DMSO) [2]: 11.50%

CC(C)(C)c1ccc(CNC(=O)C2CCc3c(O)ccc(O)c3C2)cc1 (stereo not shown) [Example 29]
Growth (% rel. to DMSO) [2]: 23.58%

O=C(NCc1cc(O)ccc1O)c1ccccc1 [Example 1, N-[(2,5-dihydroxyphenyl)methyl]benzamide]
Association (% rel. to DMSO) [1]: 15.84%
Growth (% rel. to DMSO) [2]: 55.20%

CC(C)CNC(=O)C1CCc2c(O)c3c(c(O)c2C1)C(=O)C=CC3=O (stereo not shown) [Example 22]
Association (% rel. to DMSO) [1]: 108.99%
Growth (% rel. to DMSO) [2]: 61.29%

CC(C)C(=O)NCc1cccc(-c2ccccc2)c1O [Example 17]
Association (% rel. to DMSO) [1]: 70.49%
Growth (% rel. to DMSO) [2]: 8.11%
